# Patent US20030130121A1, “Novel bacterial isolate and the preparation and use of its active metabolites” (priority 1999, published 2003)
# Entries after “also recorded” stand apart in the source; their conditions may differ. Read-outs that look alike come from different tables or passages of the source.
# Legend:
# [1] = tested on: A. fumigatus conidiospores; assay: Suppression of spore germination - microtiter plate assay 1; format: cell-based; conditions: Aspergillus fumigatus, read-out: Minimal Inhibitory Concentration (MIC) to totally inhibit spore germination
# Description: (§1) To obtain the A. fumigatus conidiospores, the fungus was grown on ME slants for about 2 weeks at 28° C. The F. culmorum and F. oxysporum conidia, the H. annosum basidiospores, the M. canis macroconidia were produced by inoculating fungal plugs on Corn Meal Agar plates (CMA, Difco Ltd.), Hagem Agar plates (5 g glucose, 5 g ME, 0.5 g NH4NO3, 0.5 g KH2PO4, 0.5 g MgSO4×7H2O, 20 g Agar in 1000 ml deionized H2O) and Oat Meal Agar plates (60 g oat meal, 12.5 g Agar in 1000 ml deionized H2O), respectively, for a period of 5 to 10 days at 25° C. Ascospores of S. sclerotiorum were collected during their dispersal from apothecia by entrapping them on the surface of a water agar (12 g Bacto Agar (Difco Ltd)), 1000 ml H2O). Mature spores were then scraped off or washed out from the surface of the agar plates, with 0,5% Bacto Peptone (Difco Ltd) supplemented with 0.01% Tween 80. The P. ultimum sporangia were obtained by. growing the fungus on grass blades (Martin, 1992). The C. albicans stock culture of 1.0×10^6 cfu ml^−1 was prepared from a 24-hours old culture grown on Yeast Malt Agar plates (YM Agar, Difco Ltd) at 37° C. by suspending it in 0.5% Bacto Peptone and adjusting the optical density of this culture to an absorbance of 0.5 at 600 nm. The spore concentration was counted by using a Bürker chamber, and stock spore suspensions were stored at −70 ° C. for further use. The spore concentrations in respective stock suspensions, as well as the spore concentrations and media to culture fungi in a microtiter plate assay, are listed in Table 2 below.
# (§2) To follow the activity during purification, HPLC-fractions to be tested were directly collected to 96-well microtiter plates by using a fraction collector (FC 204, Gilson), and mainly the activity to inhibit the germination of F. culmorum conidia and S. sclerotiorum ascospores was tested. […] The solvents were always evaporated, and one hundred μl of spore suspension, suspended in the appropriate media as listed in Table 2, were then distributed into each well. Depending on the fungus tested, the spore germination was monitored after 24 to 96 hours of incubation at 25° C. in darkness except for A. fumigatus and C. albicans which were incubated at 28 ° C. and 37 ° C. Controls were spores suspended in respective culturing media and culturing media only. All tests were done in triplicate and repeated at least twice.
# (§3) The activity of haterumalide A, B and E, and of pyrrolnitrin to inhibit the spore germination of A. fumigatus, F. culmorum, F. oxysporum, H. annosum, M. canis, P. ultimum and S. sclerotiorum as well as the inhibition of the C. albicans growth was tested by using the microtiter plate assay 1 described in Example 7. The effect on apothecial formation of S. sclerotiorum sclerotia was assayed by using microtiter plate assay 2 described in Example 7.
# F. culmorum conidia = assay: as above; format: cell-based; conditions: Fusarium culmorum, read-out: Minimal Inhibitory Concentration (MIC) to totally inhibit spore germination
# Description: as §1, §2, §3
# F. oxysporum conidia = assay: as above; format: cell-based; conditions: Fusarium oxysporum, read-out: Minimal Inhibitory Concentration (MIC) to totally inhibit spore germination
# Description: as §1, §2, §3
# H. annosum basidiospores = assay: as above; format: cell-based; conditions: Heterobasidion annosum, read-out: Minimal Inhibitory Concentration (MIC) to totally inhibit spore germination
# Description: as §1, §2, §3
# P. ultimum sporangia = assay: as above; format: cell-based; conditions: Globisporangium ultimum, read-out: Minimal Inhibitory Concentration (MIC) to totally inhibit spore germination
# Description: as §1, §2, §3
# M. canis macroconidia = assay: as above; format: cell-based, Microsporum canis var. canis; conditions: Microsporum canis, read-out: Minimal Inhibitory Concentration (MIC) to totally inhibit spore germination
# Description: as §1, §2
# as §3, with “The effect on apothecial formation of S. sclerotiorum sclerotia was assayed by using microtiter plate assay 2 described in Example 7.” left out
# [2] = tested on: S. sclerotiorum ascospores; assay: as above; format: cell-based, Sclerotinia sclerotiorum; conditions: for inhibition of ascospore germination: S. sclerotiorum, qualitative; for MIC: Sclerotinia sclerotiorum, read-out: Minimal Inhibitory Concentration (MIC) to totally inhibit spore germination
# Description: as §1, §2, §3
# [3] = tested on: S. sclerotiorum sclerotia; assay: Suppression of apothecial formation - microtiter plate assay 2; format: cell-based, Sclerotinia sclerotiorum; conditions: for inhibition of apothecial formation of sclerotia: S. sclerotiorum, qualitative; for MIC: Sclerotinia sclerotiorum
# Description: Twenty four-well microtiter plates were used to test the effect of the purified metabolites on apothecial formation in a concentration range between 0.01 μg ml^−1 and 100 μg ml^−1. To obtain respective concentrations of tested metabolites, the appropriate volume out of the respective metabolite stock solutions of 100 μg ml^−1, 10 μg ml^−1 and 1 μg ml^−1, dissolved in acetonitrile, was distributed into the wells and the solvent was then evaporated. Thereupon, the metabolites were dissolved in sterile H2O and one, or in some tests two, preconditioned sclerotia were placed into each well. Tests were done in triplicate and controls were sclerotia placed in sterile water only.
# as §3
# S. sclerotiorum mycelium = assay: Suppression of S. sclerotiorum mycelial growth, susceptibility test discs on PDA; format: cell-based, Sclerotinia sclerotiorum; conditions: for inhibition of mycelial growth: S. sclerotiorum, qualitative
# Description: For testing effects of haterumalide A, halves of surface sterilized and bisected sclerotia were placed in the center PDA plates (9 cm in diameter) to initiate mycelial growth of S. sclerotiorum. The metabolite, at a concentration from 0.05 to 5 μg ml^−1 diluted in MeOH/H2O (1:1), was then spotted directly onto sterile antimicrobial susceptibility test discs (Oxoid Ltd) located at four equidistant places, giving a total of 0.2 to 20 μg ml^−1 compound per one Petri plate. The treatments were performed in triplicate. Zones of inhibition of mycelial growth were measured after 4 days and reduction of mycelial growth was calculated as a percentage of MeOH/H2O controls.
# Stellaria media = assay: Foliar spraying of Stellaria media with A 153 culture preparations and haterumalide B; format: in vivo; conditions: Stellaria media 6-8 leaf stage; 4 ml/4 plants/pot; no concentration factor printed
# Lemna minor = assay: Differentiation and growth of Lemna minor, 24-well microtiter plates; format: in vivo; conditions: for Number of Lemna minor fronts (leaves) per one microtiter plate well, End of test: 10 fronts at beginning, control 36
# Description: Twenty four-well microtiter plates were used to test the effect of the purified haterumalide B on differentiation and growth of Lemna minor in a concentration range between 1 μg ml^−1 and 60 μg ml^−1. To obtain respective concentrations of the tested metabolite, the appropriate volume out of the respective metabolite stock solutions of 100 μg ml^−1 and 10 μg ml^−1, dissolved in acetonitrile, was distributed into the wells, and the solvent was then evaporated. Thereupon, the metabolite was dissolved in a sterile Lemna medium and three Lemna minor plants with 10 fronts were placed into each well. Tests were done in duplicate and controls were Lemna minor plants placed in only Lemna medium.
# [4] = tested on: green algae (Scenedesmus quadricauda); assay: Growth of green algae in Z8 medium; format: cell-based; conditions: concentrations similar to those used for the Lemna minor test; preliminary
# Description: Additionally, the similar method was used to preliminary test the effect of haterumalide B on the growth of green algae (Scenedesmus quadricauda). Evaporated haterumalide B was dissolved in a sterile Z8 medium with the suspension of algae. Tests were performed in duplicate with suspensions of Scenedesmus quadricauda placed in only sterile Z8 medium as controls.
# [5] = tested on: S. sclerotiorum sclerotia; assay: Viability of recovered sclerotia; format: cell-based, Sclerotinia sclerotiorum
# Description: The sclerotia were placed in 100 ml of deionized water for 10 minutes and subsequently. washed with running deionized water for 10 minutes. They were then transferred onto moistened filter paper in sealed Petri dishes and placed under light conditions suitable for induction of apothecial formation. […] These sclerotia were surface disinfected in 70% ethanol for 2 minutes, rinsed in sterile deionized water, bisected, transferred to PDA in Petri dishes, and observed for mycelial growth after 5 days.
# All the preparations were prepared in such a way that their relative concentrations corresponded to those of the bacterial culture, i.e. 1.5×10^9 cfu ml^−1 (non-diluted), 0.75×10^9 cfu ml^−1 (diluted 1:1) and 0.375×10^9 cfu ml^−1 (diluted 1:3), and their apothecial suppressive activity was compared to the effect of such bacterial cultures tested simultaneously. Three Petri plates per treatment were used with sclerotia treated with deionized water, 50, 25 and 12, 5% strength TSB and 1, 0.5 and 0.25% methanol (MeOH) in deionized water, as controls. Inclusion of methanol controls reflected residual concentrations of methanol in the ethyl acetate extratct and aqueous phase. The suppression of apothecial formation after the treatment with various culture preparations was transformed to values of apothecia formed per one sclerotium as a percentage of water control. Sclerotia with suppressed apothecial formation were retrieved and their viability was tested as described above (Example 8).
# [6] = tested on: three classes of fungi other than Oomycetes; conditions: Strobel et al. (1999); inhibition of mycelial growth; cited from earlier work
# [7] = read-out: Minimal Inhibitory Concentration (MIC) to totally inhibit apothecial formation of sclerotia, S. sclerotiorum sclerotia
Structure (SMILES),MIC [1] [µg/mL],MIC (F. culmorum conidia) [µg/mL],MIC (F. oxysporum conidia) [µg/mL],MIC (H. annosum basidiospores) [µg/mL],MIC (P. ultimum sporangia) [µg/mL],MIC (M. canis macroconidia) [µg/mL],inhibition of ascospore germination [2],MIC [2] [µg/mL],inhibition of apothecial formation of sclerotia [3],"MIC [3, 7] [µg/mL]",inhibition of mycelial growth (S. sclerotiorum mycelium),other results
C/C1=C/C/C=C(\Cl)CCC2CC(OC(=O)C[C@@H]1O)[C@H]([C@H](O)/C=C(\C)CC(=O)O)O2 (some centres unmarked) [Haterumalide E],15,5,25,< 50,8,< 75,ability to inhibit,3,ability to inhibit,0.5,ability to inhibit,–
"O=[N+]([O-])c1c(Cl)cccc1-c1c[nH]cc1Cl [Pyrrolnitrin, pyrrolnitrin, reference compound]",–,0.06,–,–,–,–,–,–,–,–,–,"MIC ([1]; A. fumigatus): 3 µg/mL; MIC (F. oxysporum conidia; F. oxysporum): 20 µg/mL; MIC (H. annosum basidiospores; H. annosum): 50 µg/mL; MIC (P. ultimum sporangia; P. ultimum): < 50 µg/mL; MIC (M. canis macroconidia; M. canis): 1 µg/mL; MIC ([2]; S. sclerotiorum ascospores): 10 µg/mL; MIC ([3]; S. sclerotiorum sclerotia, read-out: Minimal Inhibitory Concentration (MIC) to totally inhibit apothecial formation of sclerotia): < 100 µg/mL"
CC(=O)O[C@H]1CC(=O)OC2CC(CC/C(Cl)=C/C/C=C\1C)O[C@H]2[C@H]1C=C(C)CC(=O)O1 (some centres unmarked) [Haterumalide X],–,–,–,–,–,–,ability to inhibit,–,ability to inhibit,–,ability to inhibit,–
C=C(COC(=O)C/C(C)=C/[C@@H](O)[C@@H]1OC2CC/C(Cl)=C/C/C=C(/C)[C@@H](OC(C)=O)CC(=O)OC1C2)C(C)=O (some centres unmarked) [Haterumalide B],13,1,0.8,20,1,40,ability to inhibit,3,ability to inhibit,0.5,ability to inhibit,"Plants Surviving (Stellaria media): 0.0; Shot Fresh Weight (Stellaria media): 0.1 g; Number of Lemna minor fronts (leaves) per one microtiter plate well, End of test (Lemna minor; 1 μg ml-1): 10; Number of Lemna minor fronts (leaves) per one microtiter plate well, End of test (Lemna minor; 5 μg ml-1): 10; Number of Lemna minor fronts (leaves) per one microtiter plate well, End of test (Lemna minor; 10 μg ml-1): 10; Number of Lemna minor fronts (leaves) per one microtiter plate well, End of test (Lemna minor; 30 μg ml-1): 10; Number of Lemna minor fronts (leaves) per one microtiter plate well, End of test (Lemna minor; 60 μg ml-1): 10; Visible effects on Lemna fronts (Lemna minor; at all tested concentrations (1 to 60 μg ml-1)): fronts impaired and totally; also recorded: chlorotic; differentiation and growth of Lemna minor (Lemna minor; at all tested concentrations (1 to 60 μg ml^−1)): totally inhibited; growth of green algae [4]: inhibits the growth"
CC(=O)O[C@H]1CC(=O)OC2CC(CC/C(Cl)=C/C/C=C\1C)O[C@H]2[C@H](O)/C=C(\C)CC(=O)O (some centres unmarked) [Haterumalide A],5,2,0.8,35,0.4,15,ability to inhibit,0.8,ability to inhibit,–,ability to inhibit,"mycelial growth of retrieved sclerotia on PDA plates ([5]; sclerotia treated with 10 μg ml^−1): no mycelial growth; apothecial formation of retrieved sclerotia on moistened filter paper ([5]; sclerotia treated with 0.5 and 1 μg ml^−1): produced apothecia; mycelial growth of retrieved sclerotia on PDA plates ([5]; sclerotia treated with 3 and 5 μg ml^−1): produced mycelium; carpogenic germination of retrieved sclerotia ([5]; sclerotia treated with 3 to 10 μg ml^−1): total inhibition; inhibition of mycelial growth of S. sclerotiorum (S. sclerotiorum mycelium; 0.05 to 0.1 μg ml^−1 per disc, 4 days): did not inhibit; activity against three classes of fungi other than Oomycetes [6]: little or no activity"
